Assay results taken from the supplement of paper PMC10290057.
Where a name gives a salt, the structure may show the parent alone.

Experiments:
HCT116 [1] = assay: efficacy (fitted maximal change in viability relative to DMSO control); higher = less cytotoxic (negative = loss of viability); conditions: 48 h
HCT116 [2] = assay: AC50 cell viability (CellTiter-Glo); higher = less potent; conditions: 48 h
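Wherever AC50 cell viability (CellTiter-Glo) is given: HCT116 colorectal carcinoma cells screened at five concentrations per compound, luminescent viability scaled between DMSO wells and empty wells on each plate, curves fitted per compound.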
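Wherever efficacy (fitted maximal change in viability relative to DMSO control) is given: Luminescence-based viability readout, five doses per compound, normalized against on-plate DMSO and empty-well controls, followed by dose-response curve fitting for every drug.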

SMILES | efficacy (HCT116 [1]) [%] | AC50 cell viability (HCT116 [2]) [µM]
C=CC(=O)Nc1cccc(Nc2nc(Nc3ccc(Oc4ccnc(C(=O)NC)c4)cc3)ncc2F)c1 [CNX-774] | -111 | 14.8
CNC(=O)c1cccc(-c2ccc3c(N4CCOC[C@@H]4C)nc(N4CCOC[C@@H]4C)nc3n2)c1 [Vistusertib] | -31.3 | 0.417
Nc1nc(OCc2cc(Br)cs2)c2[nH]cnc2n1 [Lomeguatrib] | -56 | 18.6
C[C@@H]1C[C@H]2[C@@H]3CC\C4=C\C(=O)\C=C/[C@]4(C)[C@@]3(Cl)[C@@H](O)C[C@]2(C)[C@@]1(OC(=O)C5=CC=CO5)C(=O)CCl [Mometasone furoate] | -78.7 | 20.9
Fc1ccc2[nH]ccc2c1-c1nc(N2CCOCC2)c2sc(CN3CCN(CC4CC4)CC3)cc2n1 [PI-3065] | -95.1 | 18.6
C=C1C(=O)O[C@H]2C[C@H](C)C(/C=C/C(C)=O)=CC[C@H]12 [Xanthatin] | -76 | 2.63
N#C/N=C(\NCCCCCCOc1ccc(Cl)cc1)Nc1ccncc1 [GMX-1778] | -93.3 | 0.0132
COC1=CC=CC2=C1C(=NC(=N2)C3=CC=CS3)NN4C(=O)\C=C(C)/C4=O [SPC-839] | -91.1 | 0.525
C[N]1C=C(C=N1)C2=CN=C3\C=C/C4=CC=C(C[S+]([O-])(=O)NCC5=NC=CC=C5)C=C4C(=O)C3=C2 [MK-8033] | -65.9 | 16.6
O=C(NCc1ccccc1)c1csc(Nc2ccncn2)n1 [Thiazovivin] | -84 | 20.9
CCC(=O)N1CCOc2c(cc(-c3cc(OC)cc(OC)c3)cc2C(=O)N[C@H]2CCCN(C)C2)C1 [TPOP-146] | -79.1 | 20.9
c1ccc2c(CCNc3ccc(Nc4ccncc4)cc3)c[nH]c2c1 [Serdemetan] | -89.6 | 5.9
OC(=O)/C1=C/CCN(CCOC(C2=CC=C(C=C2)C(F)(F)F)C3=CC=C(C=C3)C(F)(F)F)C1 [CI-966] | -37.1 | 18.6
Cc1nc(Nc2n[nH]c3c2CN(C(=O)N[C@H](CN(C)C)c2ccccc2)C3(C)C)c2sccc2n1 | -64.7 | 0.0186
Cc1nc2c([nH]1)-c1ccccc1N(C(=O)c1ccc(NC(=O)c3ccccc3-c3ccccc3)cc1)CC2 [Conivaptan hydrochloride] | -45.3 | 20.9
CC(C)(C)Sc1c(CC(C)(C)C(=O)O)n(Cc2ccc(Cl)cc2)c2ccc(OCc3ccc4ccccc4n3)cc12 [MK591] | -88.4 | 20.9
CN(C)C/C=C/C(=O)Nc1cccc(C(=O)Nc2cccc(Nc3ncc(Cl)c(-c4c[nH]c5ccccc45)n3)c2)c1 [THZ-2] | -78.8 | 0.0934
Cc1cccc(-c2[nH]c(C(C)(C)C)nc2-c2ccc3nccnc3c2)n1 | -85.8 | 20.9
N#CC[C@H](C1CCCC1)n1cc(-c2ncnc3[nH]ccc23)cn1 [Ruxolitinib] | -67.4 | 11.8
Cc1cc(Nc2cc(N3CCN(C)CC3)nc(Sc3ccc(NC(=O)C4CC4)cc3)n2)[nH]n1 [Tozasertib] | -95.2 | 7.42
CCc1cccc(CC)c1NC(=O)N1Cc2[nH]nc(NC(=O)c3ccc(N4CCN(C)CC4)cc3)c2C1 | -88.9 | 11.8
CO[C@H]1/C=C/O[C@@]2(C)Oc3c(C)c(O)c4c(c3C2=O)C2=NC3(CCN(CC(C)C)CC3)NC2=C(NC(=O)/C(C)=C/C=C/[C@H](C)[C@H](O)[C@@H](C)[C@@H](O)[C@@H](C)[C@H](OC(C)=O)[C@@H]1C)C4=O [Rifabutin] | -60 | 23.5
